Measured values reported in patent publication US20130281449A1, “Oxazine Derivatives and their Use in the Treatment of Neurological Disorders” (NOVARTIS AG, priority 2011, published 2013).
Structures can show the parent of a compound that is named as a salt.

Columns and labels:
Human BACE-1 = Human BACE-1 (Homo sapiens, UniProt P56817); test: Test 1: Inhibition of Human BACE-1; type: biochemical; settings: mean IC50 values in Test 1; recombinant BACE-1, pH 4.5
Protocol: Test 1: Inhibition of Human BACE-1
IC50 values are calculated from percentage of inhibition of BACE-1 activity as a function of the test compound concentration.

[1] = tested on: Cellular Release of Amyloid Peptide 1-40; test: Test 4: Inhibition of Cellular Release of Amyloid Peptide 1-40; type: cell-based, Chinese hamster; settings: Cricetulus griseus, 24 h; read-out: Amyloid-β1-40 release IC50
Protocol: Chinese hamster ovary cells are transfected with the human gene for amyloid precursor protein. The cells are plated at a density of 8000 cells/well into 96-well microtiter plates and cultivated for 24 hours in DMEM cell culture medium containing 10% FCS. The test compound is added to the cells at various concentrations, and the cells are cultivated for 24 hours in the presence of the test compound. […] The potency of the compound is calculated from the percentage of inhibition of amyloid peptide release as a function of the test compound concentration.

Human BACE-1, sequence (P56817 46-457 limits assumed): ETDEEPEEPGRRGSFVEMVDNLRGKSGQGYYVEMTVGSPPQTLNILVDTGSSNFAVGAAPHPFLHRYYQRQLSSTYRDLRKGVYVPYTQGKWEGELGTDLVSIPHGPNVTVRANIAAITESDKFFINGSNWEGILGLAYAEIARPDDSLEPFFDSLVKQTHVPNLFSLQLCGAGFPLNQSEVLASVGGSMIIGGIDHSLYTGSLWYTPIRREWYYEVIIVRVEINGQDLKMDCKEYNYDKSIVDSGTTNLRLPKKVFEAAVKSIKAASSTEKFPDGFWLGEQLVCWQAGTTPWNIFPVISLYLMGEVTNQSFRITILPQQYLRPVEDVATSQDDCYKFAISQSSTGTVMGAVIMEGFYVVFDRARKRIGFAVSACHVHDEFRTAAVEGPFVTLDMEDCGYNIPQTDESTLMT

**Q.** With Cc1cc(C(F)F)cnc1C(=O)Nc1ccc(F)c([C@]2(C)CO[C@@](C)(C(F)(F)F)C(N)=N2)c1 [Example 27, 5-Difluoromethyl-3-methyl-pyridine-2-carboxylic acid [3-((3R,6R)-5-amino-3,6-dimethyl-6-trifluoromethyl-3,6-dihydro-2H-[1,4]oxazin-3-yl)-4-fluoro-phenyl]-amide hydrochloride] as the compound, how does the IC50 (Human BACE-1) read?
**A.** 16 nM

**Q.** And the IC50 [1]?
**A.** 10 nM

**Q.** What does the source list for C[C@@]1(c2cc(NC(=O)c3ncc(C(F)(F)F)cc3Cl)ccc2F)CO[C@@](C)(C(F)(F)F)C(N)=N1 [Example 34, 3-Chloro-5-trifluoromethyl-pyridine-2-carboxylic acid [3-((3R,6R)-5-amino-3,6-dimethyl-6-trifluoromethyl-3,6-dihydro-2H-[1,4]oxazin-3-yl)-4-fluoro-phenyl]-amide]?
**A.** IC50 (Human BACE-1): 16 nM; IC50 [1]: 10 nM

**Q.** [2H]C([2H])([2H])Oc1cnc(C(=O)Nc2ccc(F)c([C@]3(C)CO[C@@](C)(C(F)(F)F)C(N)=N3)c2)c(C)c1 [Example 36, 5-Trideuteromethoxy-3-methyl-pyridine-2-carboxylic acid [3-((3R,6R)-5-amino-3,6-dimethyl-6-trifluoromethyl-3,6-dihydro-2H-[1,4]oxazin-3-yl)-4-fluoro-phenyl]-amide] was tested. Which IC50 (Human BACE-1) did it give?
**A.** 28 nM

**Q.** And the IC50 [1]?
**A.** 18 nM

**Q.** N#Cc1cnc(C(=O)Nc2ccc(F)c([C@]3(C(F)F)COCC(N)=N3)c2)c(Cl)c1 [Example 2, 3-Chloro-5-cyano-pyridine-2-carboxylic acid [3-((R)-5-amino-3-difluoromethyl-3,6-dihydro-2H-[1,4]oxazin-3-yl)-4-fluoro-phenyl]-amide] was tested. Which IC50 (Human BACE-1) did it give?
**A.** 32 nM

**Q.** And the IC50 [1]?
**A.** 11 nM

**Q.** COc1ccc(C(=O)Nc2ccc(F)c([C@]3(C)CO[C@@](C)(C(F)(F)F)C(N)=N3)c2)c(Cl)n1 [Example 45, N-[3-((3R,6R)-5-Amino-3,6-dimethyl-6-trifluoromethyl-3,6-dihydro-2H-[1,4]oxazin-3-yl)-4-fluoro-phenyl]-2-chloro-6-methoxy-nicotinamide] was tested. Which IC50 (Human BACE-1) did it give?
**A.** 2600 nM

**Q.** And the IC50 [1]?
**A.** 720 nM

**Q.** For [2H]C([2H])([2H])OC([2H])([2H])c1cc2c(Cl)c[nH]c2nc1C(=O)Nc1ccc(F)c([C@]2(C)CO[C@@](C)(C(F)(F)F)C(N)=N2)c1 [Example 33, 3-Chloro-5-trideuteromethoxy-dideuteromethyl-1H-pyrrolo[2,3-b]pyridine-6-carboxylic acid [3-((3R,6R)-5-amino-3,6-dimethyl-6-trifluoromethyl-3,6-dihydro-2H-[1,4]oxazin-3-yl)-4-fluoro-phenyl]-amide], which IC50 (Human BACE-1) is on record?
**A.** 13 nM

**Q.** What about the IC50 [1] of the same compound?
**A.** 41 nM

**Q.** Which IC50 (Human BACE-1) does the source give for C[C@@]1(c2cc(NC(=O)c3ncc(Cl)cc3F)ccc2F)CO[C@@](C)(C(F)(F)F)C(N)=N1 [Example 21, 5-Chloro-3-fluoro-pyridine-2-carboxylic acid [3-((3R,6R)-5-amino-3,6-dimethyl-6-trifluoromethyl-3,6-dihydro2H-[1,4]oxazin-3-yl)-4-fluoro-phenyl]-amide hydrochloride] here?
**A.** 12 nM

**Q.** And the IC50 [1]?
**A.** 9 nM

**Q.** For C[C@@]1(c2cc(NC(=O)c3ncc(C#N)cc3Cl)ccc2F)CO[C@@](C)(C(F)(F)F)C(N)=N1 [Example 17, 3-Chloro-5-cyano-pyridine-2-carboxylic acid [3-((3R,6R)-5-amino-3,6-dimethyl-6-trifluoromethyl-3,6-dihydro-2H-[1,4]oxazin-3-yl)-4-fluoro-phenyl]-amide hydrochloride], which IC50 (Human BACE-1) is on record?
**A.** 9 nM

**Q.** What about the IC50 [1] of the same compound?
**A.** 4 nM

**Q.** [2H]C([2H])([2H])Oc1cnc(C(=O)Nc2cc(F)c(F)c([C@]3(C(F)F)COCC(N)=N3)c2)c(Cl)c1 [Example 15, 3-Chloro-5-trideuteromethoxy-pyridine-2-carboxylic acid [3-((R)-5-amino-3-difluoromethyl-3,6-dihydro-2H-[1,4]oxazin-3-yl)-4,5-difluoro-phenyl]-amide] was tested. Which IC50 (Human BACE-1) did it give?
**A.** 32 nM

**Q.** And the IC50 [1]?
**A.** 21 nM

**Q.** How did the IC50 (Human BACE-1) turn out when Cc1cc(C(F)F)cnc1C(=O)Nc1ccc(F)c([C@]2(C(F)F)COCC(N)=N2)c1 [Example 8, 5-Difluoromethyl-3-methyl-pyridine-2-carboxylic acid [3-((R)-5-amino-3-difluoromethyl-3,6-dihydro-2H-[1,4]oxazin-3-yl)-4-fluoro-phenyl]-amide hydrochloride] was run?
**A.** 54 nM

**Q.** What about the IC50 [1] of the same compound?
**A.** 8 nM

**Q.** With N#Cc1cnc(C(=O)Nc2ccc(F)c([C@]3(CF)COC(CF)(CF)C(N)=N3)c2)c(Cl)c1 [Example 43, 3-Chloro-5-cyano-pyridine-2-carboxylic acid [3-((R)-5-amino-3,6,6-tris-fluoromethyl-3,6-dihydro-2H-[1,4]oxazin-3-yl)-4-fluoro-phenyl]-amide] as the compound, how does the IC50 (Human BACE-1) read?
**A.** 24 nM

**Q.** And the IC50 [1]?
**A.** 22 nM

**Q.** How did the IC50 (Human BACE-1) turn out when Cl.[2H]C([2H])([2H])Oc1cnc(C(=O)Nc2ccc(F)c([C@]3(C)CO[C@@](C)(C(F)(F)F)C(N)=N3)c2)c(Cl)c1 [Example 22, 3-Chloro-5-trideutero-methoxy-pyridine-2-carboxylic acid [3-((3R,6R)-5-amino-3,6-dimethyl-6-trifluoromethyl-3,6-dihydro-2H-[1,4]oxazin-3-yl)-4-fluoro-phenyl]-amide hydrochloride] was run?
**A.** 20 nM

**Q.** And the IC50 [1]?
**A.** 7 nM

**Q.** What does the source list for Cc1cc(OC(F)F)cnc1C(=O)Nc1ccc(F)c([C@]2(C)COC(CF)(CF)C(N)=N2)c1 [Example 40, 5-Difluoromethoxy-3-methyl-pyridine-2-carboxylic acid [3-((R)-5-amino-6,6-bis-fluoromethyl-3-methyl-3,6-dihydro-2H-[1,4]oxazin-3-yl)-4-fluoro-phenyl]-amide]?
**A.** IC50 (Human BACE-1): 29 nM; IC50 [1]: 4 nM

**Q.** With N#Cc1cnc(C(=O)Nc2ccc(F)c([C@]3(C(F)F)COCC(N)=N3)c2)c(N)c1 [Example 11, 3-Amino-5-cyano-pyridine-2-carboxylic acid [3-((R)-5-amino-3-difluoromethyl-3,6-dihydro-2H-[1,4]oxazin-3-yl)-4-fluoro-phenyl]-amide] as the compound, how does the IC50 (Human BACE-1) read?
**A.** 18 nM

**Q.** What about the IC50 [1] of the same compound?
**A.** 5 nM

**Q.** For C[C@@]1(c2cc(NC(=O)c3ncc(C(F)F)cc3Cl)ccc2F)CO[C@@](C)(C(F)(F)F)C(N)=N1 [Example 32, 3-Chloro-5-difluormethyl-pyridine-2-carboxylic acid [3-((3R,6R)-5-amino-3,6-dimethyl-6-trifluoromethyl-3,6-dihydro-2H-[1,4]oxazin-3-yl)-4-fluoro-phenyl]-amide], which IC50 (Human BACE-1) is on record?
**A.** 20 nM

**Q.** What about the IC50 [1] of the same compound?
**A.** 11 nM

**Q.** What does the source list for COCc1cc(Cl)cnc1C(=O)Nc1ccc(F)c([C@]2(C(F)F)COCC(N)=N2)c1 [Example 1, 5-Chloro-3-methoxymethyl-pyridine-2-carboxylic acid [3-((R)-5-amino-3-difluoromethyl-3,6-dihydro-2H-[1,4]oxazin-3-yl)-4-fluoro-phenyl]-amide]?
**A.** IC50 (Human BACE-1): 18 nM; IC50 [1]: 6 nM

**Q.** Which IC50 (Human BACE-1) does the source give for [2H]C([2H])([2H])Oc1cnc(C(=O)Nc2ccc(F)c([C@]3(C(F)F)COCC(N)=N3)c2)c(N)n1 [Example 3, 3-Amino-5-tris-deutero-methoxy-pyrazine-2-carboxylic acid [3-((R)-5-amino-3-difluoromethyl-3,6-dihydro-2H-[1,4]oxazin-3-yl)-4-fluoro-phenyl]-amide] here?
**A.** 25 nM

**Q.** And the IC50 [1]?
**A.** 9 nM

**Q.** Which IC50 (Human BACE-1) does the source give for NC1=N[C@@](c2cc(NC(=O)c3ncc(C(F)F)nc3N)ccc2F)(C(F)F)COC1 [Example 6, 3-Amino-5-difluoromethyl-pyrazine-2-carboxylic acid [3-((R)-5-amino-3-difluoromethyl-3,6-dihydro-2H-[1,4]oxazin-3-yl)-4-fluoro-phenyl]-amide] here?
**A.** 25 nM

**Q.** And the IC50 [1]?
**A.** 8 nM
